Assay results from ChEMBL document CHEMBL1151347, “Lignans From Justicia flava” (J Nat Prod, 1980).
Activity calls are given as the source filed them. No cut-off for these calls is given here.

Columns and labels:
Mus musculus [1] = species on record: Mus musculus; assay: Effect on central nervous system in mouse assessed as ataxia; format: functional, organism-based
Mus musculus [2] = species on record: Mus musculus; assay: Effect on central nervous system in mouse assessed as decrease in motor activity; format: functional, organism-based

SMILES: O=C1OCc2c1cc1ccc3c(c1c2-c1ccc2c(c1)OCO2)OCO3
- Activity (Mus musculus [1]): inactive
- Activity (Mus musculus [2]): inactive

SMILES: COc1cc(OC)c2c(-c3ccc4c(c3)OCO4)c3c(c(OC)c2c1O)COC3=O
- Activity (Mus musculus [1]): inactive
- Activity (Mus musculus [2]): inactive

SMILES: COc1cc([C@H]2c3cc(O)c(OC)cc3C[C@@H](CO)[C@@H]2CO)ccc1O
- Activity (Mus musculus [1]): inactive
- Activity (Mus musculus [2]): inactive
